Assay: xn = mol fraction of the nth substance listed
Conditions: 101 kPa, Liquid; for viscosity: Falling or rolling sphere viscometry; for mass density: Vibrating tube method

CCOS(=O)(=O)[O-].CC[N+]1(C)CCCCC1 [1-ethyl-1-methylpiperidinium ethyl sulfate] + O
Conditions	mass density [kg/m3]	viscosity [mPa·s]
298.15 K, x1 = 0.106	1113.1	7.436
298.15 K, x1 = 0.1407	1128.31	11.14
298.15 K, x1 = 0.2161	1148.02	22.79
298.15 K, x1 = 0.2643	1155.38	31.79
298.15 K, x1 = 0.3605	1164.49	54.56
298.15 K, x1 = 0.4662	1170.4	96.57
298.15 K, x1 = 0.5583	1173.75	159.1
298.15 K, x1 = 0.6591	1176.55	276.5
298.15 K, x1 = 0.7296	1177.92	419.2
298.15 K, x1 = 0.8133	1179.24	690.5
298.15 K, x1 = 1	1181.33	1821
303.15 K, x1 = 0.106	1109.81	6.222
303.15 K, x1 = 0.1407	1124.96	9.197
303.15 K, x1 = 0.2161	1144.56	18.22
303.15 K, x1 = 0.2643	1152	25.04
303.15 K, x1 = 0.3605	1161.22	42.54
303.15 K, x1 = 0.4662	1167.23	74.01
303.15 K, x1 = 0.5583	1170.68	119.5
303.15 K, x1 = 0.6591	1173.32	202.2
303.15 K, x1 = 0.7296	1174.77	296.9
303.15 K, x1 = 0.8133	1176.06	473.2
303.15 K, x1 = 1	1178.23	1186
308.15 K, x1 = 0.106	1106.45	5.272
308.15 K, x1 = 0.1407	1121.5	7.687
308.15 K, x1 = 0.2161	1141.12	14.99
308.15 K, x1 = 0.2643	1148.59	20.4
308.15 K, x1 = 0.3605	1157.92	33.84
308.15 K, x1 = 0.4662	1164.02	57.65
308.15 K, x1 = 0.5583	1167.53	91.73
308.15 K, x1 = 0.6591	1170.15	150.9
308.15 K, x1 = 0.7296	1171.56	218.5
308.15 K, x1 = 0.8133	1172.89	333.5
308.15 K, x1 = 1	1175.1	795.7
313.15 K, x1 = 0.106	1103.05	4.518
313.15 K, x1 = 0.1407	1118.01	6.508
313.15 K, x1 = 0.2161	1137.63	12.34
313.15 K, x1 = 0.2643	1145.18	16.7
313.15 K, x1 = 0.3605	1154.61	27.55
313.15 K, x1 = 0.4662	1160.8	45.97
313.15 K, x1 = 0.5583	1164.37	71.4
313.15 K, x1 = 0.6591	1167.05	115.8
313.15 K, x1 = 0.7296	1168.39	163.1
313.15 K, x1 = 0.8133	1169.71	242.2
313.15 K, x1 = 1	1171.79	549.9
318.15 K, x1 = 0.106	1099.61	3.91
318.15 K, x1 = 0.1407	1114.5	5.576
318.15 K, x1 = 0.2161	1134.17	10.38
318.15 K, x1 = 0.2643	1141.75	14.03
318.15 K, x1 = 0.3605	1151.3	22.7
318.15 K, x1 = 0.4662	1157.58	37.27
318.15 K, x1 = 0.5583	1161.21	56.71
318.15 K, x1 = 0.6591	1163.94	89.86
318.15 K, x1 = 0.7296	1165.32	123.9
318.15 K, x1 = 0.8133	1166.53	171.1
318.15 K, x1 = 1	1168.85	391.8
323.15 K, x1 = 0.106	1096.14	3.415
323.15 K, x1 = 0.1407	1110.96	4.818
323.15 K, x1 = 0.2161	1130.66	8.774
323.15 K, x1 = 0.2643	1138.31	11.77
323.15 K, x1 = 0.3605	1147.97	18.73
323.15 K, x1 = 0.4662	1154.35	30.42
323.15 K, x1 = 0.5583	1158.04	45.67
323.15 K, x1 = 0.6591	1160.83	70.97
323.15 K, x1 = 0.7296	1162.25	92.8
323.15 K, x1 = 0.8133	1163.48	130.8
323.15 K, x1 = 1	1165.73	285.8
328.15 K, x1 = 0.106	1092.63	3.006
328.15 K, x1 = 0.1407	1107.4	4.206
328.15 K, x1 = 0.2161	1127.13	7.538
328.15 K, x1 = 0.2643	1134.87	10.13
328.15 K, x1 = 0.3605	1144.63	15.77
328.15 K, x1 = 0.4662	1151.12	25.37
328.15 K, x1 = 0.5583	1154.87	37.45
328.15 K, x1 = 0.6591	1157.71	56.75
328.15 K, x1 = 0.7296	1159.16	73.46
328.15 K, x1 = 0.8133	1160.43	101.6
328.15 K, x1 = 1	1162.62	212.6
333.15 K, x1 = 0.106	1089.08	2.667
333.15 K, x1 = 0.1407	1103.8	3.7
333.15 K, x1 = 0.2161	1123.62	6.103
333.15 K, x1 = 0.2643	1131.4	8.625
333.15 K, x1 = 0.3605	1141.31	13.48
333.15 K, x1 = 0.4662	1147.88	21.32
333.15 K, x1 = 0.5583	1151.7	–
333.15 K, x1 = 0.6591	1154.59	44.89
333.15 K, x1 = 0.7296	1156.08	58.82
333.15 K, x1 = 0.8133	1157.38	80.45
333.15 K, x1 = 1	1159.54	162.5
338.15 K, x1 = 0.106	1085.5	2.383
338.15 K, x1 = 0.1407	1100.19	3.278
338.15 K, x1 = 0.2161	1120.07	4.937
338.15 K, x1 = 0.2643	1127.93	7.493
338.15 K, x1 = 0.3605	1137.96	11.57
338.15 K, x1 = 0.4662	1144.64	18.19
338.15 K, x1 = 0.5583	1148.52	26.14
338.15 K, x1 = 0.6591	1151.47	37.58
338.15 K, x1 = 0.7296	1152.99	47.7
338.15 K, x1 = 0.8133	1154.33	64.86
338.15 K, x1 = 1	1156.56	126.1
343.15 K, x1 = 0.106	1081.88	2.143
343.15 K, x1 = 0.1407	1096.54	2.926
343.15 K, x1 = 0.2161	1116.49	4.099
343.15 K, x1 = 0.2643	1124.44	6.755
343.15 K, x1 = 0.3605	1134.62	10.06
343.15 K, x1 = 0.4662	1141.4	15.53
343.15 K, x1 = 0.5583	1145.35	22.23
343.15 K, x1 = 0.6591	1148.36	32.44
343.15 K, x1 = 0.7296	1149.91	40.29
343.15 K, x1 = 0.8133	1151.31	53
343.15 K, x1 = 1	1153.58	99.87

Source: the NIST ThermoML archive (doi:10.1016/j.tca.2014.02.019)
